Values joined by “and” are separate entries in the source; they are usually repeats but may differ in a detail not shown here. Identical values can stand only once. Bridge positions count the residues as written; N and C are the ends. Square brackets hold non-standard residues; d marks the D form. Peptide text beside a SMILES is read from it. * marks the point of attachment. ξ: configuration not given here. NMeI = CC[CH](C)[CH](NC)C(=O)O; ξNMe2Val = CC(C)C(C(=O)*)N(C)C; NMeT = CN[CH](C(=O)O)[CH](C)O; NMeL = CN[CH](CC(C)C)C(=O)O; Hiv = CC(C)[CH](O)C(=O)O; NMeS = CN[CH](CO)C(=O)O; NMeA = CN[CH](C)C(=O)O
Columns and labels:
SK-MEL-5 (melanoma) = test: NCI60 screen, SK-MEL-5; assay type: cell-based, human
Experimental: (§1) Coibamide A was tested against the National Cancer Institute NCI60 tumor cell lines (dtp.nci.nih.gov/branches/btb/ivclsp.html; Shoemaker, R. H. (2006) Nat. Rev. Cancer, 6:813-823), which comprises 60 human cancer cell lines including leukemias, melanomas, ovarian, renal, prostate, breast, colon, lung and central nervous system (CNS) cancers (the data from two screens are provided in FIGS. 3A and 3B). […] Growth inhibition of 50% (GI50) is the drug concentration resulting in a 50% reduction in the net protein increase in control cells during the drug incubation. Similarly, total growth inhibition (TGI) is the drug concentration resulting in zero net protein increase in control cells, and the lethal concentration of 50% (LC50) is the drug concentration resulting in a 50% reduction in the measured protein at the end of the drug treatment as compared to that at the beginning, (a net loss of cells following treatment). […] Coibamide A produced mean cytostatic (GI50 and TGI with range) and cytotoxic (LC50 and range) parameters as follows: log GI50, −8.04 (2.96); log TGI, −5.85 (3.43); log LC50, −5.11 (2.66). These log mean values of <−4 with log range values of >2 indicate both potency and histological selectivity (FIG. 4).

SK-OV-3 (ovarian cancer) = test: NCI60 screen, SK-OV-3; assay type: cell-based, human; details: first screen
Experimental: as §1

MDA-MB-435 cells = test: cell cycle analysis by flow cytometry; assay type: cell-based; details: 24 hours
Experimental: For cell cycle analysis, MDA-MB-435 cells were treated for 24 hours with vehicle or sample. The cells were harvested and stained with Krishan's reagent. This suspension was analyzed using a Becton Dickinson FACScan flow cytometer, and the data were plotted as propidium iodide intensity versus the number of events. Quality control samples were run with each assay to ensure instrument linearity and resolution.

SF-295 (CNS cancer) = test: NCI60 screen, SF-295; assay type: cell-based, human; details: first screen
Experimental: as §1

[1] = test system: MDA-MB-435 (breast cancer); test: NCI60 screen, MDA-MB-435; assay type: cell-based, human; details: second screen
Experimental: as §1

COLO 205 (colon cancer) = test: NCI60 screen, COLO 205; assay type: cell-based, human
Experimental: as §1

[2] = test system: MDA-MB-231/ATCC (breast cancer); test: NCI60 screen, MDA-MB-231/ATCC; assay type: cell-based, human
Experimental: as §1

[3] = test system: National Cancer Institute NCI60 tumor cell lines; test: NCI60 tumor cell line panel; assay type: cell-based, human
Experimental: as §1

UACC-62 = test: NCI60 screen, UACC-62; assay type: cell-based, human; details: second screen
Experimental: as §1

[4] = test system: HeLa cervical cancer cells; test: immunofluorescence study in HeLa cells; assay type: cell-based
Experimental: (§2) Cytoskeletal assays were carried out on 1. […] Therefore, it was hypothesized that 1 might cause mitotic abnormalities by a non-tubulin dependent mechanism, and flow cytometry studies were initiated to look at the effect of the compound on cell cycle distribution (FIG. 2).

SNB-75 (CNS cancer) = test: NCI60 screen, SNB-75; assay type: cell-based, human; details: second screen
Experimental: as §1

T-47D (breast cancer) = test: NCI60 screen, T-47D; assay type: cell-based, human
Experimental: as §1

LOX IMVI (melanoma) = test: NCI60 screen, LOX IMVI; assay type: cell-based, human
Experimental: as §1

SR (leukemia) = test: NCI60 screen, SR; assay type: cell-based, human
Experimental: as §1

HCC-2998 (colon cancer) = test: NCI60 screen, HCC-2998; assay type: cell-based, human
Experimental: as §1

A-10 cells = test: cytoskeletal immunofluorescence study in A-10 cells; assay type: cell-based
Experimental: as §2

HT29 (colon cancer) = test: NCI60 screen, HT29; assay type: cell-based, human
Experimental: as §1

SF-539 (CNS cancer) = test: NCI60 screen, SF-539; assay type: cell-based, human
Experimental: as §1

[5] = test system: histone deacetylase (HDAC); test: HDAC inhibition; assay type: biochemical
HL60(TB) (leukemia) = test: NCI60 screen, HL60(TB); assay type: cell-based, human; details: second screen
A498 (renal cancer) = test: NCI60 screen, A498; assay type: cell-based, human; details: second screen
Experimental: as §1

[6] = test system: neuro-2a mouse neuroblastoma cells; test: MTT cytotoxicity, neuro-2a cells; assay type: cell-based; details: mouse/rat NG108-15, N2a, 48 hours, read-out: LC50 (the source's name)
Experimental: (§3) Cytotoxicity was measured in NCI-H460 human lung tumor cells and neuro-2a mouse neuroblastoma cells using the method of Alley et. al. (Cancer Res. (1988) 48:589-601) with cell viability being determined by 3-(4,5-dimethylthiazol-2-yl)-2,5-diphenyltetrazolium bromide (MTT) reduction (Manger et al. (1995) J. AOAC Int., 78:521-527). Cells were seeded in 96-well plates at 6000 cells/well in 180 μL of RPMI 1640 medium with 10% fetal bovine serum. Twenty-four hours later, the test chemical was dissolved in DMSO, diluted into medium without fetal bovine serum and added at 20 μL/well. DMSO was less than 0.5% of the final concentration. After 48 hours, the medium was removed and cell viability determined.

RXF 393 (renal cancer) = test: NCI60 screen, RXF 393; assay type: cell-based, human; details: second screen
Experimental: as §1

HOP-92 (NSCLC) = test: NCI60 screen, HOP-92; assay type: cell-based, human
Experimental: as §1

M-14 (melanoma) = test: NCI60 screen, M-14; assay type: cell-based, human; details: second screen
Experimental: as §1

[7] = test system: NCI-H460 human lung tumor cells; test: MTT cytotoxicity, NCI-H460 cells; assay type: cell-based; details: 48 hours, read-out: LC50 (the source's name)
Experimental: as §3

[8] = mean over the panel, log range in brackets, preliminary

`CCC(C)C1C(=O)NC(C)C(=O)N(C)C(CC(C)C)C(=O)NC(Cc2ccc(OC)cc2)C(=O)N(C)C(C)C(=O)OC(C)C(N(C)C(=O)C(CC(C)C)N(C)C(=O)C(COC)N(C)C(=O)C(OC(=O)C(C(C)C)N(C)C)C(C)C)C(=O)N(C)C(COC)C(=O)N1C` (centres unmarked) [Coibamide A] (ξNMe2Val-[Hiv][NMeS](Me)[NMeL][NMeT][NMeS](Me)[NMeI]A[NMeL]Y(Me)[NMeA]; ester 4-C; configuration not given here) showed a GI50 (SK-MEL-5 (melanoma); Homo sapiens, SK-MEL-5, undefined activity) of under 0.001 µM, a TGI (SK-MEL-5 (melanoma); first screen) of 0.006 µM and a TGI (SK-MEL-5 (melanoma); second screen) of 0.0269 µM. For the same compound, the TGI (SK-OV-3 (ovarian cancer)) was 0.0098 µM, the “cells in G2/M” value (MDA-MB-435 cells) was “no change in G2/M” and the mitotic accumulation (MDA-MB-435 cells) was “does not cause any significant mitotic accumulation”. The “cells in G1 phase” value (MDA-MB-435 cells; dose dependent) was “large increase in the number of cells in G1 phase”, the “cells in S phase” value (MDA-MB-435 cells; dose dependent) was “reduction of cells in S phase” and the TGI (SF-295 (CNS cancer)) was 0.0219 µM. It also gave a TGI [1] of 0.1 µM, a CC50 (COLO 205 (colon cancer); Homo sapiens, COLO 205, NCI60 screen, read-out: LC50 (the source's name)) of 0.0358 µM and a TGI (COLO 205 (colon cancer); first screen) of 0.0049 µM. The TGI (COLO 205 (colon cancer); second screen) was 0.0157 µM, the TGI ([2]; first screen) was 0.0251 µM and the TGI ([2]; second screen) was 0.0028 µM. The “activity by cancer type from the mean graph for GI50 values” [3] was “consistently active against leukemias, CNS, colon, and breast cancer cells”, the GI50 values ([3]; 53 of the 55 cancer cell lines screened) was “Nanomolar or better” and the CC50 ([3]; Homo sapiens, mean over the panel, log range in brackets, preliminary, read-out: mean log LC50 (range) (converted)) was 7.76 µM. For the same compound, the “mean log GI50 (range)” value [3, 8] was −8.04 (2.96), the “mean log TGI (range)” value [3, 8] was −5.85 (3.43) and the TGI (UACC-62) was 0.0806 µM. For the same compound, the mitotic structures ([4]; 100 nM concentration) was “two aberrant mitotic structures were observed”, the “phenotypic effects on microtubules or nuclear structures” value ([4]; immunofluorescence) was “did not show any expected phenotypic effects on microtubules or on nuclear structures” and the TGI (SNB-75 (CNS cancer)) was 0.0076 µM. For the same compound, the GI50 (T-47D (breast cancer); Homo sapiens, T47D, undefined activity) was under 0.001 µM, the TGI (T-47D (breast cancer); first screen) was 0.0054 µM and the TGI (LOX IMVI (melanoma); first screen) was 0.0066 µM. The TGI (LOX IMVI (melanoma); second screen) was 0.0074 µM, the TGI (SR (leukemia); first screen) was 0.0166 µM and the TGI (SR (leukemia); second screen) was 0.087 µM. It also gave a GI50 (HCC-2998 (colon cancer); Homo sapiens, HCC 2998, undefined activity) of under 0.001 µM, a TGI (HCC-2998 (colon cancer); first screen) of 0.0083 µM and a TGI (HCC-2998 (colon cancer); second screen) of 0.0937 µM. The microtubule changes (A-10 cells) was “did not show any of the expected microtubule changes”, the mitotic spindles (A-10 cells) was “some monopolar mitotic spindles were observed” and the LC50 (concentration giving 50% net cell loss) (HT29 (colon cancer); Homo sapiens, HT-29, NCI60 screen) was 0.0933 µM. It also gave a GI50 (HT29 (colon cancer); Homo sapiens, HT-29, undefined activity) of under 0.001 µM, a TGI (HT29 (colon cancer); first screen) of 0.0104 µM and a TGI (HT29 (colon cancer); second screen) of 0.0146 µM. For the same compound, the TGI (SF-539 (CNS cancer); first screen) was 0.0303 µM, the TGI (SF-539 (CNS cancer); second screen) was 0.0287 µM and the HDAC inhibitor activity [5] was “no significant activity”. For the same compound, the TGI (HL60(TB) (leukemia)) was 0.0074 µM, the TGI (A498 (renal cancer)) was 0.0744 µM and the CC50 [6] was > 0.03 µg/mL and > 23 nM. The TGI (RXF 393 (renal cancer)) was 0.0823 µM, the TGI (HOP-92 (NSCLC); first screen) was 0.0254 µM and the TGI (HOP-92 (NSCLC); second screen) was 0.0114 µM. For the same compound, the TGI (M-14 (melanoma)) was 0.0112 µM and the CC50 [7] was > 0.03 µg/mL and > 23 nM.

Source: patent US8034780B2, “Isolation, purification, and structure elucidation of the antiproliferative compound coibamide A” (priority 2007, dated 2011)
